Reference: US8404718B2, “Combinations of pyrazole kinase inhibitors” (Astex Therapeutics Limited, priority 2005, dated 2013)

biological target: Activated CDK2/CyclinA (Homo sapiens, UniProt P24941); experiment: Activated CDK2/CyclinA kinase inhibitory activity assay (IC50), Example 250A; assay type: biochemical; settings: not given
Description: Compounds of the invention were tested for kinase inhibitory activity using the following protocol.
The reaction is allowed to proceed for 2 to 4 hours before being stopped with an excess of ortho-phosphoric acid (5 μl at 2%).
γ^33P-ATP which remains unincorporated into the histone H1 is separated from phosphorylated histone H1 on a Millipore MAPH filter plate. The wells of the MAPH plate are wetted with 0.5% orthophosphoric acid, and then the results of the reaction are filtered with a Millipore vacuum filtration unit through the wells. Following filtration, the residue is washed twice with 200 μl of 0.5% orthophosphoric acid. Once the filters have dried, 20 μl of Microscint 20 scintillant is added, and then counted on a Packard Topcount for 30 seconds.

Row | Compound | IC50
1 | CN1CCC(N2CCC(NC(=O)c3n[nH]cc3NC(=O)c3c(F)cccc3F)CC2)CC1 [Example 177] | < 20 µM
2 | O=C(N[C@H]1CC[C@@H](N2CCOCC2)CC1)c1n[nH]cc1NC(=O)c1c(F)cccc1F [Example 168] | < 20 µM
3 | CN1CCC(NC(=O)Nc2c[nH]nc2C(=O)N[C@H]2CC[C@H](O)CC2)CC1 [Example 171] | < 20 µM
4 | O=C(N[C@@H]1CCNC1)c1n[nH]cc1NC(=O)c1c(F)cccc1F [Example 185] | < 20 µM
5 | O=C(NC[C@H]1CC[C@H](NC(=O)c2n[nH]cc2NC(=O)c2c(F)cccc2F)CC1)OCc1ccccc1 [Example 130] | < 20 µM
6 | CC(C)(C)NC(=O)Nc1c[nH]nc1C(=O)NCC1CC1 [Example 184] | < 20 µM

Now from value to compound:

Row | IC50 | Compound
7 | < 20 µM | O=C(Nc1ccccc1)Nc1c[nH]nc1C(=O)N[C@H]1CC[C@H](O)CC1 [Example 156]
8 | < 20 µM | CN1CCC(C(=O)Nc2c[nH]nc2C(=O)NCC2CC2)CC1 [Example 181]
9 | < 20 µM | CC(C)(C)OC(=O)N1CCC(NC(=O)c2n[nH]cc2NC(=O)c2ccc(F)cc2)CC1 [Example 173]
10 | < 20 µM | O=C(N[C@H]1CC[C@@H](NC2CCOCC2)CC1)c1n[nH]cc1NC(=O)c1c(F)cccc1F [Example 170]

tested on: human colon carcinoma cell line HCT 116; experiment: Anti-proliferative activity, Alamar Blue assay; assay type: cell-based; settings: 72 hours compound incubation, read-out: IC50, inhibition of cell growth, HCT 116
Description: The anti-proliferative activities of the combinations of the invention, as well as the individual components of the combinations, are determined by measuring the ability of the compounds to inhibition of cell growth in a number of cell lines. Inhibition of cell growth is measured using the Alamar Blue assay (Nociari, M. M, Shalev, A., Benias, P., Russo, C. Journal of Immunological Methods 1998, 213, 157-167). The method is based on the ability of viable cells to reduce resazurin to its fluorescent product resorufin. For each proliferation assay cells are plated onto 96 well plates and allowed to recover for 16 hours prior to the addition of inhibitor compounds for a further 72 hours. At the end of the incubation period 10% (v/v) Alamar Blue is added and incubated for a further 6 hours prior to determination of fluorescent product at […]. In the case of the non-proliferating cell assay cells are maintained at confluence for 96 hour prior to the addition of inhibitor compounds for a further 72 hours. The number of viable cells is determined by Alamar Blue assay as before. All cell lines are obtained from ECACC (European Collection of cell Cultures).

Row | Compound | IC50
11 | O=C(Nc1c[nH]nc1C(=O)Nc1ccc(F)cc1)c1cnc[nH]1 [Example 39, 4-[(3H-Imidazole-4-carbonyl)-amino]-1H-pyrazole-3-carboxylic acid (4-fluoro-phenyl)-amide] | < 100 µM
12 | O=C(Nc1c[nH]nc1C(=O)Nc1ccc(F)cc1)c1ccsc1 [Example 50, 4-[(Thiophene-3-carbonyl)-amino]-1H-pyrazole-3-carboxylic acid (4-fluoro-phenyl)-amide] | < 20 µM
13 | Cn1nc(C(C)(C)C)cc1C(=O)Nc1c[nH]nc1C(=O)NCC1CC1 [Example 183] | < 100 µM
14 | COc1cccc(C(=O)Nc2c[nH]nc2C(=O)Nc2ccc(F)cc2)c1F [Example 51, 4-(2-fluoro-3-methoxy-benzoylamino)-1H-pyrazole-3-carboxylic acid (4-fluoro-phenyl)-amide] | < 100 µM
15 | CC(C)(C)OC(=O)N1CCCC(CNC(=O)c2n[nH]cc2NC(=O)c2c(F)cccc2F)C1 (centres unmarked) [Example 97] | < 20 µM
16 | CN1CCN(NC(=O)c2n[nH]cc2NC(=O)c2c(Cl)cccc2Cl)CC1 [Example 207] | < 20 µM
17 | O=C(NC1CCN(C2CCOCC2)CC1)c1n[nH]cc1NC(=O)c1c(F)cccc1F [Example 221] | < 20 µM
18 | O=C(Nc1cc(F)ccc1OCCN1CCCC1)c1n[nH]cc1NC(=O)c1c(F)cccc1F [Example 166, 4-(2,6-Difluoro-benzoylamino)-1H-pyrazole-3-carboxylic acid[5-fluoro-2-(2-pyrrolidin-1-yl-ethoxy)-phenyl]-amide] | < 20 µM
19 | O=C(NC1CCOCC1)c1n[nH]cc1NC(=O)c1c(F)cccc1F [Example 66] | < 20 µM
20 | O=C(Nc1c[nH]nc1C(=O)Nc1ccc(F)cc1)c1ccc2ccccc2n1 [Example 49, Quinoline-2-carboxylic acid[3-(4-fluoro-phenylcarbamoyl)-1H-pyrazol-4-yl]-amide] | < 100 µM
21 | O=C(Nc1c[nH]nc1C(=O)Nc1ccc(F)cc1)c1ccc(CO)cc1 [Example 44, 4-(4-Hydroxymethyl-benzoylamino)-1H-pyrazole-3-carboxylic acid (4-fluoro-phenyl)-amide] | < 20 µM
22 | Cc1ccccc1C(=O)Nc1c[nH]nc1C(=O)Nc1ccc(F)cc1 [Example 46, 4-(2-Methyl-benzoylamino)-1H-pyrazole-3-carboxylic acid (4-fluoro-phenyl)-amide] | < 20 µM
23 | O=C(Nc1ccc(F)cc1)c1n[nH]cc1NC(=O)C1CCCCC1 [Example 27, 4-(Cyclohexanecarbonyl-amino)-1H-pyrazole-3-carboxylic acid (4-fluoro-phenyl)-amide] | < 20 µM
24 | O=C(NC1CCNCC1)c1n[nH]cc1NC(=O)c1c(Cl)cccc1Cl [Example 150] | < 20 µM
25 | O=C(CO)Nc1c[nH]nc1C(=O)Nc1ccc(F)cc1 [Example 29, 4-(2-Hydroxy-acetylamino)-1H-pyrazole-3-carboxylic acid (4-fluoro-phenyl)-amide] | < 100 µM
26 | CN1CCC(NC(=O)c2n[nH]cc2NC(=O)c2c(F)cc(F)cc2F)CC1 [Example 205] | < 20 µM
27 | O=C(Nc1ccncc1)c1n[nH]cc1NC(=O)c1c(Cl)cccc1Cl [Example 220] | < 20 µM
28 | O=C(NC1CCNC1)c1n[nH]cc1NC(=O)c1c(F)cccc1F (centres unmarked) [Example 185] | < 20 µM
29 | O=C(NCC1CC1)c1n[nH]cc1NC(=O)c1c(F)cccc1F [Example 79] | < 20 µM
30 | O=C(Nc1c[nH]nc1C(=O)Nc1ccc(F)cc1)c1ccccc1OCCN1CCCC1 [Example 52, 4-[2-(2-Pyrrolidin-1-yl-ethoxy)-benzoylamino]-1H-pyrazole-3-carboxylic acid 4-fluorophenylamide] | < 20 µM
31 | O=C(NCc1ccccn1)c1n[nH]cc1NC(=O)c1c(F)cccc1F [Example 89] | < 100 µM
32 | O=C(NC1CCN(CC2CCOC2)CC1)c1n[nH]cc1NC(=O)c1c(Cl)cccc1Cl (centres unmarked) [Example 219] | < 20 µM
33 | O=C(N[C@@H]1CN2CCC1CC2)c1n[nH]cc1NC(=O)c1c(F)cccc1F [Example 216] | < 100 µM
34 | COc1ccccc1C(=O)Nc1c[nH]nc1C(=O)Nc1ccc(F)cc1 [Example 25, 4-(2-Methoxy-benzoylamino)-1H-pyrazole-3-carboxylic acid (4-fluoro-phenyl)-amide] | < 20 µM
35 | O=C(NC1CCCC1)c1n[nH]cc1NC(=O)c1c(F)cccc1F [Example 75] | < 20 µM
36 | COc1cccc(F)c1C(=O)Nc1c[nH]nc1C(=O)Nc1cccnc1 [Example 222] | < 20 µM

Second part, the compound after the results:

Row | IC50 | Compound
37 | < 20 µM | Cc1[nH]nc(C(=O)Nc2ccc(F)cc2)c1NC(=O)c1c(F)cccc1F [Example 80]
38 | < 20 µM | O=C(NCC1CCCNC1)c1n[nH]cc1NC(=O)c1c(F)cccc1F (centres unmarked) [Example 98]
39 | < 20 µM | O=C(Nc1cccnc1)c1n[nH]cc1NC(=O)c1c(Cl)cccc1Cl [Example 218]
40 | < 20 µM | O=C(NCC1CCOCC1)c1n[nH]cc1NC(=O)c1c(F)cccc1F [Example 67]
41 | < 20 µM | COc1cccc(OC)c1C(=O)Nc1c[nH]nc1C(=O)Nc1ccc(F)cc1 [Example 60]
42 | < 20 µM | CN1CCN(c2cc(F)cc(C(=O)Nc3c[nH]nc3C(=O)NC3CCC(C(C)(C)C)CC3)c2)CC1 (centres unmarked) [Example 214]
43 | < 20 µM | O=C(Nc1cccnc1)c1n[nH]cc1NC(=O)c1c(F)cccc1F [Example 223]
44 | < 20 µM | O=C(Nc1c[nH]nc1C(=O)NC1CCNCC1)c1cccc2c1OCCO2 [Example 192]
45 | < 20 µM | O=C(Nc1cccc(CO)c1)c1n[nH]cc1NC(=O)c1c(F)cccc1F [Example 73]
46 | < 20 µM | O=C(NCc1ccccc1Cl)c1n[nH]cc1NC(=O)c1c(F)cccc1F [Example 91]
47 | < 20 µM | COC1CCC(NC(=O)c2n[nH]cc2NC(=O)c2c(Cl)cccc2Cl)CC1 (centres unmarked) [Example 210]
48 | < 100 µM | O=C(Nc1c[nH]nc1C(=O)Nc1ccc(F)cc1)c1ccco1 [Example 38, 4-[(Furan-2-carbonyl)-amino]-1H-pyrazole-3-carboxylic acid (4-fluoro-phenyl)-amide]
49 | < 20 µM | O=C(NC1CCC(O)CC1)c1n[nH]cc1NC(=O)c1c(F)cccc1F (centres unmarked) [Example 95]
50 | < 20 µM | CCOC(=O)C1CCC(NC(=O)c2n[nH]cc2NC(=O)c2c(F)cccc2F)CC1 (centres unmarked) [Example 83A, 4-{[4-(2,6-difluoro-benzoylamino)-1H-pyrazole-3-carbonyl]-amino}-cyclohexanecarboxylic acid ethyl ester]
51 | < 20 µM | O=C(Nc1cccc(CN2CCOCC2)c1)c1n[nH]cc1NC(=O)c1c(F)cccc1F [Example 74]
52 | < 20 µM | O=C(NCc1ccccc1F)c1n[nH]cc1NC(=O)c1c(F)cccc1F [Example 92]
53 | < 20 µM | O=C(NC1CCNCC1)c1n[nH]cc1NC(=O)c1cnn2ccccc12 [Example 193]
54 | < 20 µM | O=C(NCC1CCCCC1)c1n[nH]cc1NC(=O)c1c(F)cccc1F [Example 69]
55 | < 100 µM | O=C(NC1CCN(Cc2ccccc2)C1)c1n[nH]cc1NC(=O)c1c(F)cccc1F (centres unmarked) [Example 85]
56 | < 20 µM | O=C(CCc1ccc(Cl)cc1)Nc1c[nH]nc1C(=O)Nc1ccc(F)cc1 [Example 10, 4-[3-(4-Chloro-phenyl)-propionylamino]-1H-pyrazole-3-carboxylic acid (4-fluoro-phenyl)-amide]
57 | < 100 µM | O=C(Nc1ccc(F)cc1)c1n[nH]cc1NC(=O)C(F)(F)F [Example 3, 4-(2,2,2-Trifluoro-acetylamino)-1H-pyrazole-3-carboxylic acid (4-fluoro-phenyl)-amide]
58 | < 20 µM | O=C(NCc1ccccc1)c1n[nH]cc1NC(=O)c1c(F)cccc1F [Example 90]
59 | < 20 µM | COc1nc(Cl)cc(C)c1C(=O)Nc1c[nH]nc1C(=O)NC1CCNCC1 [Example 195]
